Target: T1, TDO2 (Homo sapiens, UniProt P48775)
T1 construct: decreased levels of NFK in SW48 cells (high TDO expressing cells)
Assay: TDO2 cell assay (NFK GreenScreen, SW48 cells)
Type: cell-based
Conditions: SW48 cells (high TDO expressing), 200 uM tryptophan, 24 hours; Table 3; read-out: TDO2 Cell Fluor EC50
Method: The NFK GreenScreen™ (NTRC, Netherlands) uses a specific chemical probe that binds to N-Formylkynurenine (NFK), a product of tryptophan catabolism facilitated by IDO or TDO and causes fluorescence at 510 nm when excited at 410 nm. […] The assay is multiplexed with Cell Titer-Glo® (Promega) to determine if compounds are cytotoxic. […] Cells are counted on a Vi-Cell (Beckman Coulter). SW48 cells are diluted to 1×10^6 cells/ml in assay media. A172 cells are diluted to 0.24×10^6 cells/ml in assay media. […] 5 ul of assay media containing 1.2 mM tryptophan are added to the SW48 cells for a final concentration of 200 uM tryptophan in each well. 5 ul of assay media containing 600 uM tryptophan and 600 ng/ml IFNγ are added to the A172 cells for a final concentration of 100 uM tryptophan and 100 ng/ml IFNγ in each well. The final DMSO concentration is 0.5%. Cell plates are placed at room temperature in a closed TC hood with the blower off to allow cells to settle for approximately 30 min. Plates are then moved to an incubator set at 37° C., 5% CO2 for 24 hours. After the 24 hour compound incubation, 8 ul of NFK green reagent is added to each well with a Multidrop™ Combi dispenser (Thermo Scientific). Plates are sealed and incubated at 37° C., 5% CO2 for 5 hours, then read on a PHERAstar® (BMG labtech). Data are analyzed by normalizing to DMSO and high inhibitor controls. After the plates have been read for NFK green, 25 ul of Cell Titer-Glo® (Promega) are added to each well, incubated for 15 minutes at room temperature, and read on the Envision (Perkin Elmer). Cell Titer-Glo data are analyzed by normalizing to the DMSO controls. Four-parameter curve fitting is used and EC50 data are reported.

T1 sequence (P48775 whole entry): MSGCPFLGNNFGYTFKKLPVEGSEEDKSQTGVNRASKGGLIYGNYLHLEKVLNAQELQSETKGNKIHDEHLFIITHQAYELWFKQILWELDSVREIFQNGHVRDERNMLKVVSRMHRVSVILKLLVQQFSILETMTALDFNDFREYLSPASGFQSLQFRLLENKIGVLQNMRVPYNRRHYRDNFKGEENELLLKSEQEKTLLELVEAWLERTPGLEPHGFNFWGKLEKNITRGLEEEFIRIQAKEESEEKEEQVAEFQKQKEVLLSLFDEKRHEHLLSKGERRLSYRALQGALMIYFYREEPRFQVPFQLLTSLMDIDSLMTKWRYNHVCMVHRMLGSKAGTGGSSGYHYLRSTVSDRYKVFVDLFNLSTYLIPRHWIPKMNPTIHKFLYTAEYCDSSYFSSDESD

N#CCN1CCC(O)C(C2c3ccccc3-c3cncn32)C1 (single isomer, unassigned) [Example 14b]
EC50: > 25000 nM

N#CCN1CCC(O)C(C2c3ccccc3-c3cncn32)C1 (single isomer, unassigned) [Example 14c]
EC50: 20000 nM

N#CCN1CCC(O)C(C2c3ccccc3-c3cncn32)C1 (single isomer, unassigned) [Example 14d]
EC50: > 25000 nM

CCS(=O)(=O)N1CCC(O)C(C2c3ccccc3-c3cncn32)C1 (single isomer, unassigned) [Example 15a]
EC50: > 25000 nM

CCS(=O)(=O)N1CCC(O)C(C2c3ccccc3-c3cncn32)C1 (single isomer, unassigned) [Example 15b]
EC50: > 25000 nM

CCS(=O)(=O)N1CCC(O)C(C2c3ccccc3-c3cncn32)C1 (single isomer, unassigned) [Example 15c]
EC50: 7500 nM

CCS(=O)(=O)N1CCC(O)C(C2c3ccccc3-c3cncn32)C1 (single isomer, unassigned) [Example 15d]
EC50: > 25000 nM

O[C@@H]1CCC(F)(F)C[C@@H]1[C@H]1c2ccccc2-c2cncn21 (single isomer, unassigned) [Example 18b]
EC50: 62 nM

OC1CCC(F)(F)CC1C1c2ccccc2-c2cncn21 (single isomer, unassigned) [Example 18c, 4,4-difluoro-2-(5H-imidazo[5,1-a]isoindol-5-yl)cyclohexan-1-ol]
EC50: 320 nM

OC1CCC(F)(F)CC1C1c2ccccc2-c2cncn21 (single isomer, unassigned) [Example 18d, 4,4-difluoro-2-(5H-imidazo[5,1-a]isoindol-5-yl)cyclohexan-1-ol]
EC50: 8000 nM

O[C@H]1CCC(F)(F)C[C@H]1[C@@H]1c2ccccc2-c2cncn21 (single isomer, unassigned) [Example 18f]
EC50: 15000 nM

OC1CCC(F)(F)CC1C1c2ccccc2-c2cncn21 (single isomer, unassigned) [Example 18g, 4,4-difluoro-2-(5H-imidazo[5,1-a]isoindol-5-yl)cyclohexan-1-ol]
EC50: 110 nM

OC1CCC(F)(F)CC1C1c2ccccc2-c2cncn21 (single isomer, unassigned) [Example 18h, 4,4-difluoro-2-(5H-imidazo[5,1-a]isoindol-5-yl)cyclohexan-1-ol]
EC50: 13000 nM

OC1c2ccccc2CC1C1c2ccccc2-c2cncn21 (single isomer, unassigned) [Example 19a]
EC50: 7400 nM

OC1c2ccccc2CC1C1c2ccccc2-c2cncn21 (single isomer, unassigned) [Example 19b]
EC50: 510 nM

OC1c2ccccc2CC1C1c2ccccc2-c2cncn21 (single isomer, unassigned) [Example 19c]
EC50: 180 nM

OC1c2ccccc2CC1C1c2ccccc2-c2cncn21 (single isomer, unassigned) [Example 19d]
EC50: 200 nM

OC1c2ccccc2CC1C1c2ccccc2-c2cncn21 (single isomer, unassigned) [Example 19e]
EC50: 2000 nM

OC1c2ccccc2CC1C1c2ccccc2-c2cncn21 (single isomer, unassigned) [Example 19f]
EC50: 4400 nM

OC1CCCC1C1c2ccc(F)cc2-c2cncn21 (single isomer, unassigned) [Example 20a]
EC50: > 25000 nM

OC1CCCC1C1c2ccc(F)cc2-c2cncn21 (single isomer, unassigned) [Example 20b]
EC50: 430 nM

OC1CCCC1C1c2ccc(F)cc2-c2cncn21 (single isomer, unassigned) [Example 20c]
EC50: 3600 nM

OC1CCCC1C1c2ccc(F)cc2-c2cncn21 (single isomer, unassigned) [Example 20d]
EC50: 99 nM

CC1(C)CC(O)C1C1c2ccccc2-c2cncn21 (single isomer, unassigned) [Example 22d]
EC50: 6900 nM

CC1(C)C[C@@H](O)[C@H]1[C@H]1c2ccccc2-c2cncn21 (single isomer, unassigned) [Example 22f]
EC50: 1100 nM

CC1(C)C[C@@H](O)[C@H]1[C@H]1c2ccccc2-c2cncn21 (single isomer, unassigned) [Example 22g]
EC50: 780 nM

CC1(C)CC(O)C1C1c2ccccc2-c2cncn21 (single isomer, unassigned) [Example 22h]
EC50: 400 nM

CC1(C)CCC(C2c3ccccc3-c3cncn32)C1O (single isomer, unassigned) [Example 23a]
EC50: > 25000 nM

CC1(C)CCC(C2c3ccccc3-c3cncn32)C1O (single isomer, unassigned) [Example 23b]
EC50: 85 nM

CC1(C)CCC(C2c3ccccc3-c3cncn32)C1O (single isomer, unassigned) [Example 23c]
EC50: 81 nM

CC1(C)CCC(C2c3ccccc3-c3cncn32)C1O (single isomer, unassigned) [Example 23d]
EC50: 110 nM

CC1(C)CCC(C2c3ccccc3-c3cncn32)C1O (single isomer, unassigned) [Example 23e]
EC50: 17000 nM

CC1(C)CCC(C2c3ccccc3-c3cncn32)C1O (single isomer, unassigned) [Example 23f]
EC50: 2700 nM

CC1(C)CCCC(C2c3ccccc3-c3cncn32)C1O (single isomer, unassigned) [Example 24a]
EC50: 57 nM

CC1(C)CCCC(C2c3ccccc3-c3cncn32)C1O (single isomer, unassigned) [Example 24b]
EC50: 8700 nM

CC1(C)CCCC(C2c3ccccc3-c3cncn32)C1O (single isomer, unassigned) [Example 24c]
EC50: 5500 nM

CC1(C)CCCC(C2c3ccccc3-c3cncn32)C1O (single isomer, unassigned) [Example 24d]
EC50: 1100 nM

CC1(C)CCCC(C2c3ccccc3-c3cncn32)C1O (single isomer, unassigned) [Example 24e]
EC50: 130 nM

CC1(C)CCCC(C2c3ccccc3-c3cncn32)C1O (single isomer, unassigned) [Example 24g]
EC50: 340 nM

CC1(C)CCCC(C2c3ccccc3-c3cncn32)C1O (single isomer, unassigned) [Example 24h]
EC50: 12000 nM

OC1CCCCC1C1c2ccc(F)cc2-c2cncn21 (single isomer, unassigned) [Example 25a]
EC50: 510 nM

OC1CCCCC1C1c2ccc(F)cc2-c2cncn21 (single isomer, unassigned) [Example 25b]
EC50: > 25000 nM

OC1CCCCC1C1c2ccc(F)cc2-c2cncn21 (single isomer, unassigned) [Example 25c]
EC50: 20000 nM

OC1CCCCC1C1c2ccc(F)cc2-c2cncn21 (single isomer, unassigned) [Example 25d]
EC50: 48 nM

OC1COCC1C1c2ccccc2-c2cncn21 (single isomer, unassigned) [Example 26a]
EC50: > 25000 nM

OC1COCC1C1c2ccccc2-c2cncn21 (single isomer, unassigned) [Example 26b]
EC50: 230 nM

OC1COCC1C1c2ccccc2-c2cncn21 (single isomer, unassigned) [Example 26c]
EC50: 710 nM

OC1COCC1C1c2ccccc2-c2cncn21 (single isomer, unassigned) [Example 26d]
EC50: > 25000 nM

N#CCN1CC[C@@H]([C@H]2c3ccccc3-c3cncn32)[C@H](O)C1 (single isomer, unassigned) [Example 27a]
EC50: > 25000 nM

N#CCN1CC[C@@H]([C@H]2c3ccccc3-c3cncn32)[C@H](O)C1 (single isomer, unassigned) [Example 27b]
EC50: 18000 nM
